According to publication PMC9105976, “A Novel β-Hairpin Peptide Z-d14CFR Enhances Multidrug-Resistant Bacterial Clearance in a Murine Model of Mastitis” (International Journal of Molecular Sciences, 2022):
Positions of bridges follow the written chain, without caps; N, C: chain ends. Residues, ends and D or L forms follow the SMILES beside them.

Experiments:
[1] = tested on: Salmonella typhimurium ATCC14028; assay: MIC/MBC, microdilution broth method; type: cell-based; conditions: Salmonella typhimurium ATCC14028; for MIC: 1 × 10^6 CFU/mL, 18 h at 37 °C, NA = no antimicrobial activity at 1 mg/mL; for MBC: kills 99.9% bacteria, NA = no activity at 1 mg/mL
Protocol: (§1) The MIC of peptides against bacteria was carried out by the microdilution broth method. The bacterial culture (OD 600 = 0.6) was diluted in 10 mM PBS to 1 × 10^6 CFU/mL. The bacterial suspension (100 μL) was added to 96-well plates, and the same volume of peptides, ampicillin or gentamicin (concentrations ranging from 0.001 to 2 mg/mL) were then added to the same 96-well plates, respectively.

[2] = tested on: Staphylococcus haemolyticus CAU202078; assay: MIC/MBC, microdilution broth method; type: cell-based; conditions: Staphylococcus haemolyticus CAU202078 (MDR isolate); for MIC: 1 × 10^6 CFU/mL, 18 h at 37 °C, NA = no antimicrobial activity at 1 mg/mL; for MBC: kills 99.9% bacteria, NA = no activity at 1 mg/mL
Protocol: as §1

[3] = tested on: Proteus vulgaris CVCC1971; assay: MIC/MBC, microdilution broth method; type: cell-based; conditions: Proteus vulgaris CVCC1971; for MIC: 1 × 10^6 CFU/mL, 18 h at 37 °C, NA = no antimicrobial activity at 1 mg/mL; for MBC: kills 99.9% bacteria, NA = no activity at 1 mg/mL
Protocol: as §1

[4] = tested on: Streptococcus suis CVCC3307; assay: MIC/MBC, microdilution broth method; type: cell-based; conditions: Streptococcus suis CVCC3307; for MIC: 1 × 10^6 CFU/mL, 18 h at 37 °C, NA = no antimicrobial activity at 1 mg/mL; for MBC: kills 99.9% bacteria, NA = no activity at 1 mg/mL
Protocol: as §1

[5] = tested on: Klebsiella pneumoniae CAU202084; assay: MIC/MBC, microdilution broth method; type: cell-based; conditions: Klebsiella pneumoniae CAU202084 (MDR isolate); for MIC: 1 × 10^6 CFU/mL, 18 h at 37 °C, NA = no antimicrobial activity at 1 mg/mL; for MBC: kills 99.9% bacteria, NA = no activity at 1 mg/mL
Protocol: as §1

[6] = tested on: MRSA ATCC33591; assay: MIC/MBC, microdilution broth method; type: cell-based, S. aureus; conditions: for MIC: MRSA (methicillin-resistant S. aureus) ATCC33591, 1 × 10^6 CFU/mL, 18 h at 37 °C, NA = no antimicrobial activity at 1 mg/mL; for MBC: MRSA ATCC33591, kills 99.9% bacteria, NA = no activity at 1 mg/mL
Protocol: as §1

[7] = Retention time of peptide in HPLC (hydrophobicity); type: physicochemical; conditions: used as measure of hydrophobicity (order Z-d14CR > Z-d14CF > Z-d13 > Z-d14CFR > Z-d14C); column and gradient not given
[8] = tested on: Escherichia coli CVCC1450; assay: MIC/MBC, microdilution broth method; type: cell-based; conditions: Escherichia coli CVCC1450
Protocol: as §1

[9] = tested on: Staphylococcus aureus ATCC29213; assay: MIC/MBC, microdilution broth method; type: cell-based; conditions: Staphylococcus aureus ATCC29213
Protocol: as §1

[10] = tested on: Escherichia coli CAU 201919; assay: MIC/MBC, microdilution broth method; type: cell-based; conditions: Escherichia coli CAU 201919 (MDR isolate)
Protocol: as §1

[11] = 1 × 10^6 CFU/mL, 18 h at 37 °C, NA = no antimicrobial activity at 1 mg/mL
[12] = kills 99.9% bacteria, NA = no activity at 1 mg/mL

Row | Structure (SMILES) | MIC [1] | MBC [1] | MIC [2] | MBC [2] | MIC [3] | MBC [3] | MIC [4] | MBC [4] | MIC [5] | MBC [5] | MIC [6] | MBC [6] | RT, retention time of peptide in HPLC [7] [min] | MIC [8, 11] | MBC ([8]; minimum concentration which kills 99.9% bacteria, NA = no activity at 1 mg/mL) | MIC [9, 11] | MBC [9, 12] | MIC [10, 11] | MBC [10, 12]
1 | CC(C)[C@@H]1NC(=O)[C@@H]2CSSC[C@H](NC(=O)[C@H](CCCNC(=N)N)NC(=O)[C@@H](NC(=O)CNC(=O)[C@@H](N)CCCNC(=N)N)CSSC[C@@H](C(=O)N[C@@H](CCCNC(=N)N)C(N)=O)NC1=O)C(=O)N[C@@H](CC(N)=O)C(=O)N[C@@H](CO)C(=O)N[C@@H](CCCCN)C(=O)N[C@@H](CO)C(=O)N[C@@H](C(C)C)C(=O)N2 [Z-d14CR] (H-RGCRCNSKSVCVCR-NH2; disulfide 3-13, 5-11; N-terminus assumed) | NA (NA) (No antimicrobial activity at 1 mg/mL) | NA (NA) (No antimicrobial activity at 1 mg/mL) | NA (NA) (No antimicrobial activity at 1 mg/mL) | NA (NA) (No antimicrobial activity at 1 mg/mL) | NA (NA) (No antimicrobial activity at 1 mg/mL) | NA (NA) (No antimicrobial activity at 1 mg/mL) | NA (NA) (No antimicrobial activity at 1 mg/mL) | NA (NA) (No antimicrobial activity at 1 mg/mL) | NA (NA) (No antimicrobial activity at 1 mg/mL) | NA (NA) (No antimicrobial activity at 1 mg/mL) | NA (NA) (No antimicrobial activity at 1 mg/mL) | NA (NA) (No antimicrobial activity at 1 mg/mL) | 10.159 | – | – | – | – | – | –
2 | CC(C)[C@@H]1NC(=O)[C@@H]2CSSC[C@H](NC(=O)[C@H](Cc3ccc(O)cc3)NC(=O)[C@@H](NC(=O)CNC(=O)[C@@H](N)CCCNC(=N)N)CSSC[C@@H](C(=O)N[C@@H](CCCNC(=N)N)C(N)=O)NC1=O)C(=O)N[C@@H](CC(N)=O)C(=O)N[C@@H](CO)C(=O)N[C@@H](CCCCN)C(=O)N[C@@H](CO)C(=O)N[C@@H](C(C)C)C(=O)N2 [Z-d14C] (H-RGCYCNSKSVCVCR-NH2; disulfide 3-13, 5-11; N-terminus assumed) | NA (NA) (No antimicrobial activity at 1 mg/mL) | NA (NA) (No antimicrobial activity at 1 mg/mL) | NA (NA) (No antimicrobial activity at 1 mg/mL) | NA (NA) (No antimicrobial activity at 1 mg/mL) | NA (NA) (No antimicrobial activity at 1 mg/mL) | NA (NA) (No antimicrobial activity at 1 mg/mL) | NA (NA) (No antimicrobial activity at 1 mg/mL) | NA (NA) (No antimicrobial activity at 1 mg/mL) | NA (NA) (No antimicrobial activity at 1 mg/mL) | NA (NA) (No antimicrobial activity at 1 mg/mL) | NA (NA) (No antimicrobial activity at 1 mg/mL) | NA (NA) (No antimicrobial activity at 1 mg/mL) | 7.809 | NA (NA) (No antimicrobial activity at 1 mg/mL) | NA (NA) (No antimicrobial activity at 1 mg/mL) | NA (NA) (No antimicrobial activity at 1 mg/mL) | NA (NA) (No antimicrobial activity at 1 mg/mL) | NA (NA) (No antimicrobial activity at 1 mg/mL) | NA (NA) (No antimicrobial activity at 1 mg/mL)
